Assay results: ChEMBL document CHEMBL1671849, “Novel, Broad Spectrum Anti-Cancer Agents Containing the Tricyclic 5:7:5-Fused Diimidazodiazepine Ring System” (ACS Med Chem Lett, 2011)
pIC50: −log10 of the molar value.

Key:
[1] = system: A549; experiment: Cytotoxicity against human A549 cells after 72 hrs by WST1 assay; type: functional, cell-based; conditions: A549, 72 h
[2] = system: NCI-H460; experiment: Cytotoxicity against human H460 cells after 72 hrs by WST1 assay; type: functional, cell-based; conditions: NCI-H460, 72 h
[3] = system: MCF7; experiment: Cytotoxicity against human MCF7 cells after 72 hrs by WST1 assay; type: functional, cell-based; conditions: MCF7, 72 h
[4] = system: MDA-MB-231; experiment: Cytotoxicity against human MDA-MB-231 cells after 72 hrs by WST1 assay; type: functional, cell-based; conditions: MDA-MB-231, 72 h
[5] = system: OVCAR-3; experiment: Cytotoxicity against human OVCAR3 cells after 72 hrs by WST1 assay; type: functional, cell-based; conditions: OVCAR-3, 72 h
[6] = system: PC-3; experiment: Cytotoxicity against human PC3 cells after 72 hrs by WST1 assay; type: functional, cell-based; conditions: PC-3, 72 h
[7] = system: MCF7; experiment: Cell cycle arrest in human MCF7 cells assessed as accumulation at G1 phase at 3 uM after 24 hrs by flow cytometry relative to control; type: functional
[8] = system: MCF7; experiment: Cell cycle arrest in human MCF7 cells assessed as accumulation at S phase at 3 uM after 24 hrs by flow cytometry relative to control; type: functional
[9] = system: MCF7; experiment: Cell cycle arrest in human MCF7 cells assessed as accumulation at G2/M phase at 3 uM after 24 hrs by flow cytometry relative to control; type: functional
[10] = system: Mus musculus; experiment: Toxicity in SCID mouse at up to 500 mg/kg administered twice week for 7 weeks; type: organism-based; set-up: dose 500 mg/kg; conditions: in vivo, 1176 h
[11] = system: Mus musculus; experiment: Toxicity in SCID mouse assessed as histopathological examination of kidney at up to 500 mg/kg administered twice week for 7 weeks; type: organism-based; set-up: dose 500 mg/kg; conditions: in vivo, 1176 h
[12] = system: Mus musculus; experiment: Toxicity in SCID mouse assessed as histopathological examination of spleen at up to 500 mg/kg administered twice week for 7 weeks; type: organism-based; set-up: dose 500 mg/kg; conditions: in vivo, 1176 h
[13] = system: Mus musculus; experiment: Toxicity in SCID mouse assessed as histopathological examination of liver at up to 500 mg/kg administered twice week for 7 weeks; type: organism-based; set-up: dose 500 mg/kg; conditions: in vivo, 1176 h
[14] = system: Mus musculus; experiment: Toxicity in SCID mouse assessed as histopathological examination of cerebellum-brain at up to 500 mg/kg administered twice week for 7 weeks; type: organism-based; set-up: dose 500 mg/kg; conditions: in vivo, 1176 h
[15] = system: Mus musculus; experiment: Toxicity in SCID mouse assessed as blood analysis at up to 500 mg/kg administered twice week for 7 weeks; type: organism-based; set-up: dose 500 mg/kg; conditions: in vivo, 1176 h

Row | SMILES | pIC50 [1] | pIC50 [2] | pIC50 [3] | pIC50 [4] | pIC50 [5] | pIC50 [6] | Activity [7] | Activity [8] | Activity [9] | Activity [10] | Activity [11] | Activity [12] | Activity [13] | Activity [14] | Activity [15]
1 | COc1ccc(Cn2cnc3c4nc(=O)n(Cc5cccc(OC)c5)c-4ncnc32)cc1 | 5.82 | 5.80 | 5.22 | 5.59 | 5.29 | 5.60 |  |  |  |  |  |  |  |  | 
2 | COc1ccc(Cn2c3ncnc4c(ncn4Cc4ccc(OC)cc4)c-3nc2=O)cc1 | 5.60 | 5.55 | 5.12 | 5.40 | 4.84 | 5.32 | 79.15% | 5.87% | 14.5% | Non-toxic | Non-toxic | Non-toxic | Non-toxic | Non-toxic | Non-toxic
3 | COc1ccc(Cn2cnc3c4nc(=O)n(Cc5ccccc5)c-4ncnc32)cc1 | 5.77 | 5.74 | 5.15 | 5.64 | 5.30 | 5.39 |  |  |  |  |  |  |  |  | 
4 | COc1ccc(Cn2c3nc(-c4ccc([N+](=O)[O-])cc4)nc4c(ncn4Cc4ccc(OC)cc4)c-3nc2=O)cc1 | 5.57 | 5.60 | 5.24 | 5.48 | 5.28 | 5.37 |  |  |  |  |  |  |  |  | 
5 | COc1ccc(Cn2cnc3c4nc(=O)n(Cc5ccc(F)cc5)c-4ncnc32)cc1 | 5.80 | 5.82 | 5.40 | 5.60 | 5.05 | 5.68 |  |  |  |  |  |  |  |  | 
